Consider one compound from ChEMBL document CHEMBL4715869, “N-(Pyrimidin-2-yl)-1,2,3,4-tetrahydroisoquinolin-6-amine Derivatives as Selective Janus Kinase 2 Inhibitors for the Treatment of Myeloproliferative Neoplasms” (J Med Chem, 2020).

As usually defined, the IC50 is the concentration needed to halve the response being measured. The Tmax is the time from dosing to the highest level. For orientation: AUC(0-t) means the area under the concentration-time curve up to a stated or last time point. Higher therefore signals more exposure.

In data set [1] the test system is SET-2. As to the kind of experiment: Induction of apoptosis in human SET-2 cells assessed as late apoptotic cells at 0.05 uM incubated for 24 hrs by Annexin V/PI staining based flow cytometric analysis (reference value: 1.52%). It is filed as functional. For orientation: Flow cytometry measures light scatter and fluorescence of single cells or particles in a stream.

Data set [2] has as its system SET-2. The experiment in a line: Induction of apoptosis in human SET-2 cells assessed as necrotic cells at 0.8 uM incubated for 24 hrs by Annexin V/PI staining based flow cytometric analysis (reference value: 0.78%). It is filed as functional.
The target of data set [3] is T1, Tyrosine-protein kinase JAK3 (Homo sapiens, UniProt P52333).
T1 sequence (P52333 whole entry): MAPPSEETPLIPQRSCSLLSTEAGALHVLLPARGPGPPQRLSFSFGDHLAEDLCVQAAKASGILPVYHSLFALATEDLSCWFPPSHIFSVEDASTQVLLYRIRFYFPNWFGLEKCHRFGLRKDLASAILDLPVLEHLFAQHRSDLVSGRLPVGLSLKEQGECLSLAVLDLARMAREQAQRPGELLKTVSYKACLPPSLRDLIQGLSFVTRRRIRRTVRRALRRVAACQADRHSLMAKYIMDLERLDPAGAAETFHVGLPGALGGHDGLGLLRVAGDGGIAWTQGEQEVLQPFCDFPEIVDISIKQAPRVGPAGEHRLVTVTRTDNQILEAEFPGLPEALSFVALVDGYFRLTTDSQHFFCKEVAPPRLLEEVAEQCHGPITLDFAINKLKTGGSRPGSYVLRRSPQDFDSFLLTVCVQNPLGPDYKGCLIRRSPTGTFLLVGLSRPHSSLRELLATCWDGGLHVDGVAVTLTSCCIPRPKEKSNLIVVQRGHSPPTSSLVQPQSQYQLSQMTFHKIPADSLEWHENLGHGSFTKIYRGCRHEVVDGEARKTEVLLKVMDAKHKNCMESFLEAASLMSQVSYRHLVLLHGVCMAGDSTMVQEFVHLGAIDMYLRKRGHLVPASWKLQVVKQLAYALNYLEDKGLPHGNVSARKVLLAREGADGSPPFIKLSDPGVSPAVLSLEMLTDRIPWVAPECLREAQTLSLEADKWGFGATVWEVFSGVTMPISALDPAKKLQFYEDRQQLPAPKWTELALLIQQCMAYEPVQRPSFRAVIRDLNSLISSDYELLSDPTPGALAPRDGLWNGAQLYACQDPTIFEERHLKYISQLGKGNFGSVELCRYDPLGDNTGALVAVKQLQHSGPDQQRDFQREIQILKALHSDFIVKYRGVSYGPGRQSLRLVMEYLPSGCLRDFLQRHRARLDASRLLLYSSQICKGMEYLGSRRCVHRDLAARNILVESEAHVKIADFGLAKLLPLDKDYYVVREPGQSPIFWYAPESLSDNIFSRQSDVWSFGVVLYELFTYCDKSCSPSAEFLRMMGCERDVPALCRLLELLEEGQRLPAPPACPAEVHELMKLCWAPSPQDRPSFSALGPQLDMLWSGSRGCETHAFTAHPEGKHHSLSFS
As to the kind of experiment: Inhibition of recombinant human JAK3 (781 to end residues) using GGEEEEYFELVKKKK as substrate measured after 40 mins in presence of [gamm33P]ATP by scintillation counting method.

The test system of data set [4] is SET-2. The experiment in a line: Antitumor activity against human SET2 cells xenografted in NOD/SCID mouse assessed as tumor growth inhibition at 30 mg/kg, po qd administered for 16 days and measured every 2 days relative to control. It is filed as functional. Particulars: SET-2, po, 384 h, time 16 day, read-out: TGI. On the technique in general: A xenograft is tissue or cells of one species grown in another, often human tumour cells in immunodeficient mice.

Data set [5] concerns SET-2. As to the kind of experiment: Induction of apoptosis in human SET-2 cells assessed as live cells at 0.05 uM incubated for 24 hrs by Annexin V/PI staining based flow cytometric analysis (reference value: 96.23 %). It is filed as functional.
Data set [6] relates to SET-2. As to the kind of experiment: Antitumor activity against human SET2 cells xenografted in NOD/SCID mouse assessed as tumor growth inhibition at 60 mg/kg, po qd administered for 16 days and measured every 2 days relative to control. The class given is functional. Particulars: SET-2, po, 384 h, time 16 day, read-out: TGI.
Data set [7] concerns Tyrosine-protein kinase JAK2 (Homo sapiens), O60674 [V617F]. The experiment in a line: Inhibition of JAK2 V617F mutant in human SET-2 cells assessed as reduction in JAk2 phosphorylation after 2 hrs by Western blot analysis. It is filed as cell-based. The settings on record: SET2, dose 1-1000 nM.
Sequence of Tyrosine-protein kinase JAK2 (Homo sapiens), O60674 [V617F] (O60674 whole entry V617F): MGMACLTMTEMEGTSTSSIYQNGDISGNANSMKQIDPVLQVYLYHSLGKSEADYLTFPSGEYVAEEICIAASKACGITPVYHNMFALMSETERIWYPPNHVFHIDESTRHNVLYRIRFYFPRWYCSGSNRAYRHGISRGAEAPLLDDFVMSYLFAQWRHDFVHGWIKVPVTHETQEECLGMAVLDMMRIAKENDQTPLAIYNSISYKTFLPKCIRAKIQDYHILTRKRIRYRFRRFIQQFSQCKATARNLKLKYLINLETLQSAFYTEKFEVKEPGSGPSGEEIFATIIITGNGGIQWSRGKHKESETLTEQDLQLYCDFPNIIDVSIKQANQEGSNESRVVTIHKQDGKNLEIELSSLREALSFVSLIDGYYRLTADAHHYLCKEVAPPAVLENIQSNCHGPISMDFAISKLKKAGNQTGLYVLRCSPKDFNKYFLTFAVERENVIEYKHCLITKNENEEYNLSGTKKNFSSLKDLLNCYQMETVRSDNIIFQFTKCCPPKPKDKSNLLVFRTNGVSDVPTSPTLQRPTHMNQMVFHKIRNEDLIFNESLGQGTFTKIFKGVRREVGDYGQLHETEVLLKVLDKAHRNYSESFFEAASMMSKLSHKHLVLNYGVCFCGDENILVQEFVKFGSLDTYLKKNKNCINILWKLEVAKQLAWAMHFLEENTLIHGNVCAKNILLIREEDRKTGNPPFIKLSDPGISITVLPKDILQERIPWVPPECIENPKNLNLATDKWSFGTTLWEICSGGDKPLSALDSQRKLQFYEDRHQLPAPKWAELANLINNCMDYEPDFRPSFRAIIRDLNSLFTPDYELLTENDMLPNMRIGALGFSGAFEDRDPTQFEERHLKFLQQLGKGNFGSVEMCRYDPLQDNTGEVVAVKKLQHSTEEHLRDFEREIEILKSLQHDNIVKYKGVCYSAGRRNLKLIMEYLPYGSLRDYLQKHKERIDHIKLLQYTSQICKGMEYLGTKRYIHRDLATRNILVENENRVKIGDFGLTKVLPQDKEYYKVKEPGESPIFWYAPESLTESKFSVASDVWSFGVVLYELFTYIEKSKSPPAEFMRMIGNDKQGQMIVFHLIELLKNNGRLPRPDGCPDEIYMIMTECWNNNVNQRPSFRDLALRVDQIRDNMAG
In data set [8] the target is T2, Signal transducer and activator of transcription 1 (Mus musculus) (UniProt P42225).
T2 sequence (whole entry): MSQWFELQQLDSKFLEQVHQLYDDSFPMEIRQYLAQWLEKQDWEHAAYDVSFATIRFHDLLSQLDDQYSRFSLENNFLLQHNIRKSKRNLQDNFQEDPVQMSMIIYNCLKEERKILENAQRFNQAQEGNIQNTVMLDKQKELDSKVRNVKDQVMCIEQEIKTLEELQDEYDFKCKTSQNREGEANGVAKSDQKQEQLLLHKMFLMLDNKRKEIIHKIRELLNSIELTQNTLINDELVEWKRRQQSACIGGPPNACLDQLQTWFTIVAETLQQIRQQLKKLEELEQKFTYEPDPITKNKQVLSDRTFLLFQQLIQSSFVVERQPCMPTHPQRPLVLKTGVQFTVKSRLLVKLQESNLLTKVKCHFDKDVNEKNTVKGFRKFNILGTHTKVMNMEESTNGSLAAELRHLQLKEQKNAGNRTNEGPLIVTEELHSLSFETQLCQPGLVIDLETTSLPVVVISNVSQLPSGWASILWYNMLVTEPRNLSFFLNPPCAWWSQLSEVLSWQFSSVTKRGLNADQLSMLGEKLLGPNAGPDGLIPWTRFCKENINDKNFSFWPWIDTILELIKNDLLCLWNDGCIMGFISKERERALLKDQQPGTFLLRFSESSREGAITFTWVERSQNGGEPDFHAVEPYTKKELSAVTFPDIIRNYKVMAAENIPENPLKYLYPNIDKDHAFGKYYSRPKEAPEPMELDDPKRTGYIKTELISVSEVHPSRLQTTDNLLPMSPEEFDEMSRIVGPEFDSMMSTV
As to the kind of experiment: Inhibition of STAT1 phosphorylation in mouse BAF3 cells at 1000 nM after 2 hrs by Western blot analysis. It is filed as cell-based. (In general: A western blot detects proteins with antibodies after separation by electrophoresis.)

Data set [9] in a line: Tmax in male Sprague-Dawley rat at 5 mg/kg, iv administered […] measured upto 24 hrs by LC/MS/MS analysis. Particulars: in vivo. The class given is ADME, organism-based.
The test system of data set [10] is SET-2. As to the kind of experiment: Induction of apoptosis in human SET-2 cells assessed as live cells at 0.2 uM incubated for 24 hrs by Annexin V/PI staining based flow cytometric analysis (reference value: 96.23 %). It is filed as functional.
Data set [11] is described as follows: AUC (0 to t) in Sprague-Dawley rat at 5 mg/kg, po administered via gavage measured upto 24 hrs by LC/MS/MS analysis. It is filed as ADME, organism-based. On the set-up: route oral, dose 5 mg/kg, time <=24. Particulars: in vivo.
Data set [12] in a line: Selectivity index, ratio of IC50 for inhibition of recombinant human TYK2 (875 to end residues) to IC50 for inhibition of recombinant human JAK2 (808 to end residues).
Data set [13] concerns SET-2. The experiment in a line: Induction of apoptosis in human SET-2 cells assessed as necrotic cells at 1.6 uM incubated for 24 hrs by Annexin V/PI staining based flow cytometric analysis (reference value: 0.78%). The class given is functional.

Calls of active or inactive are those of the source. The calls are words filed in the database; no cut-off is given here.

`Cc1cnc(Nc2ccc3c(c2)CCN(C(=O)/C=C/CN(C)C)C3)nc1-c1cnn(C(C)C)c1`: the Activity came out at 2.34% in data set [1]; 1.37% in data set [2]; 94.6% in [5]; 90.35% in data set [10]; 4.04% in data set [13]. In addition, the 50% inhibitory concentration (IC50) in [3] amounted to 94 nM. In [4], the inhibition in vivo at 30 mg/kg was 67.8%. In data set [6], the inhibition in vivo at 60 mg/kg was found to be 82.3%. Moreover, the inhibition result in data set [7] was “Dose-dependent effect”. Moreover, the inhibition entry in [8] is “inactive”. Also, in data set [9], the Tmax is 4.8 min. In [11], this compound yielded an AUC(0-t) at 24 h of 254 ng·h/mL. Besides, the Ratio IC50 in [12] amounted to 25.
